Marks after values point to notes of the source that are not given here.
What was measured:
Type in all cases: in vivo, rhesus monkeys
[1] = test system: CD4+ and CD8+ T cells in the nigra; test: Infiltration of CD4+ and CD8+ T cells into the nigra of hemiparkinsonian monkeys (immunostaining); conditions: oral 1 mg/kg body wt/d for 30 d from 7 d after MPTP; near blood vessel and in deep parenchyma of ventral midbrain
From the text: (§1) FIG. 2 (A-E). […] Naïve female rhesus monkeys received a right intracarotid injection of MPTP. […] MPTP group of monkeys also received normal banana as control. After 30 d of treatment, ventral midbrain sections were DAB-stained for CD4 (A, vessel; B, parenchyma). C) Sections were double-labeled for CD4 and TH. CD4-positive cells were counted in two nigral sections (D, within 100 μm around vessel; E, parenchyma within 100 to 200 μm around vessel) of each of four monkeys (n=4) per group. ap<0.001 vs. control; bp<0.01 vs. MPTP. Control represents the intact side of MPTP-intoxicated monkeys.
as §1, with “3 (A-D).” for “2 (A-E).”, “CD8” for “CD4”, “CD8-positive” for “C) Sections were double-labeled for CD4 and TH. CD4-positive”, “(C,” for “(D,”, “D,” for “E,”, “monkeys. […]” for “monkeys.”
(§2) At the end point, monkeys were anesthetized with pentobarbital (25 mg/kg intravenously) and killed via perfusion with 0.9% saline. […] These punches were processed for HPLC analysis (for quantification of neurotransmitters). […]

[2] = test system: iNOS, Iba1-positive microglia, GFAP-positive astrocytes in the SNpc; test: Glial inflammation in the SNpc of hemiparkinsonian monkeys (Iba1, GFAP, iNOS immunofluorescence); conditions: oral 1 mg/kg body wt/d for 30 d
From the text: FIG. 4 (A-E). […] After 30 d of treatment, nigral sections were double-labeled for Iba1 and iNOS (A) and GFAP and iNOS (B). Cells positive for Iba1 (C), GFAP (D) and iNOS (E) were counted using the olympus microsuite V software in two nigral sections (two images per slide) of each of four monkeys (n=4) per group. ap<0.001 vs. control; bp<0.001 vs MPTP; ns, not significant vs MPTP.
(§3) Female rhesus monkeys (6-8 years old; 5-7 kg) were used in this study. All animals were singly housed with a 12-h light/dark cycle. Purine monkey chow and water were available ad libitum. Diets were supplemented with fruit during the testing sessions. The study was performed in accordance with federal guidelines of proper animal care and with the approval of the IACUC. Monkeys were intoxicated with MPTP according to protocol described previously (12-16). Briefly, animals were tranquilized with ketamine (10 mg/kg, i.m.) and then maintained on an anesthetic plane with isoflurane (1-2%). The animals were put in the supine position. For each injection, a right-sided incision was made along the medial edge of the sternocleidomastoid muscle. […]
For immunofluorescence staining, anti-Iba-1 antibody (1:500), anti-iNOS antibody (1:1000), and anti-GFAP antibody (1:1000) were used. The samples were mounted and observed under an Olympus IX81 fluorescence microscope as described before (17-19).

α-syn = test: α-Synucleinopathy in the nigra of hemiparkinsonian monkeys (TH and α-syn double-labeling); conditions: oral 1 mg/kg body wt/d for 30 d
From the text: FIG. 5 (A-C). […] Naïve female rhesus monkeys received a right intracarotid injection of MPTP. […] MPTP group of monkeys also received normal banana as control. After 30 d of treatment, nigral (A) sections were double-labeled for TH and α-syn. Total area (B) and integrated density (C) of α-syn bodies were quantified in two sections (two images per section) of each of four monkeys per group. ap<0.001 vs control (MPTP-intact); bp<0.001 vs MPTP-lesion.
as §3, with “position.” for “position. For each injection, a right-sided incision was made along the medial edge of the sternocleidomastoid muscle.”
as §2

[3] = test system: TH-positive dopaminergic neurons and fibers; test: TH immunostaining: dopaminergic neurons in the SNpc (stereology) and striatal TH fibers (optical density); conditions: oral 1 mg/kg body wt/d for 30 d, lesion side
Procedure: FIG. 6 (A-C). Oral maraviroc treatment protects dopaminergic neurons in the SNpc of hemiparkinsonian monkeys. Naïve female rhesus monkeys received a right intracarotid injection of MPTP. […] MPTP group of monkeys also received normal banana as control. A) After 30 d of treatment, nigral sections were immunostained for TH. B) A magnified image of TH-stained SNpc is shown. […] All counting were performed by a single investigator blinded to the experimental conditions. ap<0.001 vs MPTP-intact; bp<0.01 vs MPTP-lesion.
FIG. 7 (A-B). Oral maraviroc treatment protects THir fibers in the striatum of hemiparkinsonian monkeys. Naïve female rhesus monkeys received a right intracarotid injection of MPTP. […] MPTP group of monkeys also received normal banana as control. A) After 30 d of treatment, striatal sections were immunostained for TH. B) Optical density of TH fibers in caudate and putamen was calculated by digital image analysis. Six different striatal sections of each monkey were analyzed. ap<0.001 vs MPTP-intact; bp<0.01 vs MPTP-Caudate-lesion; cp<0.01 vs MPTP-Putamen-lesion.
Female rhesus monkeys (6-8 years old; 5-7 kg) were used in this study. […]
as §2

[4] = test system: striatal dopamine, DOPAC and HVA; test: HPLC analysis of striatal neurotransmitters in hemiparkinsonian monkeys; conditions: oral 1 mg/kg body wt/d for 30 d
Procedure: FIG. 8 (A-E). Maraviroc protects striatal dopamine in hemiparkinsonian monkeys. Naïve female rhesus monkeys received a right intracarotid injection of MPTP. […] MPTP group of monkeys also received normal banana as control. After 30 d of treatment, dopamine levels were measured in dorsomedial caudate (A), ventromedial caudate (B), dorsal putamen (C), ventral putamen (D), and nucleus accumbens (E). HPLC quantification of dopamine was performed by a single investigator blinded to the experimental conditions. Data are means±SEM of four monkeys per group. ap<0.001 vs MPTP-intact; bp<0.001 vs MPTP-lesion.
FIG. 9 (A-E). Maraviroc protects striatal DOPAC and HVA in hemiparkinsonian monkeys. Naïve female rhesus monkeys received a right intracarotid injection of MPTP. […] After 30 d of treatment, levels of DOPAC and HVA were measured in dorsomedial caudate (A), ventromedial caudate (B), dorsal putamen (C), ventral putamen (D), and nucleus accumbens (E). HPLC quantification of DOPAC and HVA was performed by a single investigator blinded to the experimental conditions. […]
as §2
Samples were analyzed for neurotransmitters by an investigator blind to the treatment groups. […]

hemiparkinsonian monkeys = test: Behavioral analysis: parkinsonian rating scale (PD scale) and hand reaching task in hemiparkinsonian monkeys
Procedure: Female rhesus monkeys (6-8 years old; 5-7 kg) were used in this study. All animals were singly housed with a 12-h light/dark cycle. Purine monkey chow and water were available ad libitum. Diets were supplemented with fruit during the testing sessions. The study was performed in accordance with federal guidelines of proper animal care and with the approval of the IACUC. Monkeys were intoxicated with MPTP according to protocol described previously (12-16). Briefly, animals were tranquilized with ketamine (10 mg/kg, i.m.) and then maintained on an anesthetic plane with isoflurane (1-2%). The animals were put in the supine position. For each injection, a right-sided incision was made along the medial edge of the sternocleidomastoid muscle. The carotid sheath was opened and the common carotid artery, internal jugular vein, and vagus nerves were identified. The common carotid was exposed below the carotid bifurcation. The external carotid artery was then ligated. A 27 gauge butterfly needle was inserted into the common carotid artery in a direction retrograde to blood flow; for each injection, 20 ml of saline containing 3 mg of MPTP-HCl (Sigma) was infused at a rate of 1.33 ml/min (15 min). After the infusion was completed, 3 ml of saline was delivered, and then the incision was closed.
Monkeys displaying hemiparkinsonian symptoms 7 d after the first intracarotid injection were included in the study. […] The control group of hemiparkinsonian monkeys (n=4) received only banana as vehicle.
The animals were trained to a consistent level of performance before intracarotid injection of MPTP. Monkeys were rated thrice a week by an investigator blind to the treatment groups using a parkinsonian rating scale (PD scale) utilized to quantify the clinical status of the monkeys (13-16). The scale included ratings of 10 parkinsonian features (tremor, posture, locomotion, hypokinesia, bradykinesia, balance, fine and gross motor skills, startle response, and freezing). Each test consisted of twelve total trials alternating between arms, six per side. Delaying feeding time until after the task was completed ensured animals' compliance with the test. Data collected included the time taken for the animal to move its hand into the chamber where the fruit was located (reaction time), the time taken to pick up the fruit while the hand was in the chamber (reception time) and the total time taken to move the hand into the chamber, retrieve the fruit and bring the hand back out of the panel and into the cage (total time).
All values are expressed as means±SEM. Differences among means were analyzed by one-way ANOVA or Kruskal-Wallis test (comparison among all groups) and post-hoc pair-wise comparison. In other cases, two sample t tests were also used to compare control vs MPTP and MPTP vs MPTP+maraviroc. For behavioral analysis, one way repeated measure ANOVA models were used. Pair-wise comparisons were conducted with Bonferroni adjustment.

[5] = PD scale score after treatment, 1 mg/kg body wt/d orally, mean ± SEM, four monkeys

For maraviroc, the “infiltration of CD4+ T cells into the nigra” value [1] was “significantly attenuated”, the “infiltration of CD8+ T cells into the nigra” value [1] was “significantly attenuated” and the “expression of iNOS protein in the SNpc” value [2] was “reduced”. For the same substance, the “number of astrocytes and microglia in the SNpc” value ([2]; GFAP- and Iba1-positive cells) was “did not significantly reduce”, the “α-syn pathology in the SNpc” value (α-syn) was “almost missing” and the “striatal TH fibers” value ([3]; caudate and putamen) was “significantly restored”. For the same substance, the “SNpc TH-positive neurons” value [3] was “significantly restored”, the “levels of DOPAC and HVA in different parts of striatum” value [4] was “restored” and the “DA in different parts of striatum” value ([4]; caudate, putamen, nucleus accumbens) was “pronounced preservation”. For the same substance, the “Balance (0-3)” value (hemiparkinsonian monkeys; [5]) was 0.57 ± 0.04^a, the “Brady kinesia (0-5)” value (hemiparkinsonian monkeys; [5]) was 0.85 ± 0.28^a and the “Defense Reaction (0-2)” value (hemiparkinsonian monkeys; [5]) was 0.24 ± 0.07^a. For the same substance, the “Freezing (0-2)” value (hemiparkinsonian monkeys; [5]) was 0.39 ± 0.03^a, the “Gait (0-5)” value (hemiparkinsonian monkeys; [5]) was 0.25 ± 0.03^a and the “General (Gross) motor skills (0-3), L Hand” value (hemiparkinsonian monkeys; [5]) was 0.89 ± 0.05. The “General (Gross) motor skills (0-3), R Hand” value (hemiparkinsonian monkeys; [5]) was 0.01 ± 0.00, the “Posture (0-3)” value (hemiparkinsonian monkeys; [5]) was 0.39 ± 0.04^a and the “Tremor (0-3), L Hand” value (hemiparkinsonian monkeys; [5]) was 0.42 ± 0.03^a. The “Tremor (0-3), R Hand” value (hemiparkinsonian monkeys; [5]) was 0.00 ± 0.00, the “Total (Sum mean)” value (hemiparkinsonian monkeys; PD scale total score after treatment, 1 mg/kg body wt/d orally, mean ± SEM, four monkeys) was 4.01 ± 0.40^a and the “functional ability on clinical rating scale and operant motor test” value (hemiparkinsonian monkeys; oral 1 mg/kg body wt/d for 30 d) was “significantly improved”. The “motor deficits in a hand-reach task” value (hemiparkinsonian monkeys; oral maraviroc) was “reversed”.
